Test results reported in patent US10208010B2, “Crystal of a heterocyclidene acetamide derivative” (MOCHIDA PHARMACEUTICAL CO., LTD., priority 2017, dated 2019).

Columns and labels:
human TRPV1 = molecular target: T1, human TRPV1 (Homo sapiens, UniProt Q8NER1); assay: Measurement of capsaicin-induced Ca influx in human TRPV1-transformed CHO cell line; type: cell-based; settings: concentration shifting the capsaicin concentration reaction curve to the right by two times; hTRPV1-CHO cells, FDSS-6000
T1 construct: expressed in transfected cells
T1 sequence (Q8NER1 whole entry): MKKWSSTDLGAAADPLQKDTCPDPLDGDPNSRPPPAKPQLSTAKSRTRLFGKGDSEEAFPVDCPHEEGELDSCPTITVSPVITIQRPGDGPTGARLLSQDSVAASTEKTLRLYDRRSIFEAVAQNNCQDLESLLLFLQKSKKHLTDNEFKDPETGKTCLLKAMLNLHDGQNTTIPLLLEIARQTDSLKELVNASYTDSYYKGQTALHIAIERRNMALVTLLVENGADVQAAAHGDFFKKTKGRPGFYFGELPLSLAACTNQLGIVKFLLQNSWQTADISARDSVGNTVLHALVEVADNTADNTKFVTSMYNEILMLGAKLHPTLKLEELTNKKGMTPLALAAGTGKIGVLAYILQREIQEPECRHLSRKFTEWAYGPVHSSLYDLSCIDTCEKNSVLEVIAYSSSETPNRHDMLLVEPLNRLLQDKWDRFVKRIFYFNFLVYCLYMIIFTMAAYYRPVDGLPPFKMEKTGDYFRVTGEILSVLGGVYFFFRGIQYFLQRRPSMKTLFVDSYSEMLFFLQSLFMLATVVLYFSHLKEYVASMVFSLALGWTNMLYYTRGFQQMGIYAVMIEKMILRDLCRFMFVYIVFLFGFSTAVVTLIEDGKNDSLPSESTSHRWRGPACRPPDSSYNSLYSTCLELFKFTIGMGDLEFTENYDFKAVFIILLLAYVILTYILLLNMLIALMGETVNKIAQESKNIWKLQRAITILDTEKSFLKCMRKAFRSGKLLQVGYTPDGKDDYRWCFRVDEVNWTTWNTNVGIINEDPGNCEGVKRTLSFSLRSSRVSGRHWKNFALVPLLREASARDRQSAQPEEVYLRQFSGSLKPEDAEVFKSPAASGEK
Text: (1) Establishment of Human TRPV1-Transformed CHO Cell Line
Human vanilloid receptor 1 (hTRPV1) cDNA was cloned from a human brain. The cloned hTRPV1 cDNA was inserted into a pCAGGS vector, which was then genetically introduced into a CHO-K1 cell line to transform the cells. Clones obtained by limiting dilution were stimulated with capsaicin, and clones with a high responsiveness were selected based on increased Ca concentration. The selected clones were then used for the following experiment.
(2) Measurement of Ca Influx Using FDSS-6000
Human TRPV1-transformed CHO cells were seeded at a density of 40,000 cells per well on a 96-well plate (black walls, transparent bottom/manufactured by Greiner Bio-One International GmbH). […] Changes in intracellular Ca concentration were measured for 3 minutes after capsaicin stimulus (1 nmol/L to 1 μmol/L) with an FDSS-6000 (λex: 480 nm, λem: 540 nm, Hamamatsu Photonics K.K.). The integral values of the respective intracellular Ca concentration increase rates in the medium group and the group treated with the crystal of the invention were calculated, and capsaicin concentration reaction curves were prepared.

[1] = Solvent suspension test of crystal form mixture; type: physicochemical; settings: 25° C.
Text: (Experimental Example 1) Solvent Suspension Test of Crystal Form Mixture

[2] = Storage stability test (powder stability); type: physicochemical
Method: (Experimental Example 2) Storage Stability Test
(§1) After the end of the storage period, the samples were removed, their chemical purities were measured by high performance liquid chromatography, and the crystal forms were confirmed by x-ray powder analysis.

[3] = Long-term storage stability test (powder stability); type: physicochemical
Method: (Experimental Example 3) Long-Term Storage Stability Test
as §1

[4] = Photostability test in accordance with ICH Q1B; type: physicochemical; settings: for Stability with respect to light: summary in words of Table 10
Method: (Experimental Example 4) Photostability Test
After completion of the test, each sample was removed, its chemical purity was measured by high performance liquid chromatography, and the crystal form was confirmed by x-ray powder analysis.

[5] = 25° C./60% RH, 6 months, sealed
[6] = 25° C./60% RH, 13 months, sealed
[7] = 25° C./60% RH, 24 months, sealed
[8] = 25° C./60% RH, 36 months, sealed
[9] = 25° C./60% RH, 48 months, sealed
[10] = 1ICH (10-day test; 1.2 million lux hours and 200 watt hours/m^2 or more at 25° C.)

O=C(/C=C1\CCOc2cc(C(F)(F)F)ccc21)Nc1cccc2c1C[C@H](O)CC2 [Compound (1), (E)-2-(7-trifluoromethyl-chroman-4-ylidene)-N-((7R)-7-hydroxy-5,6,7,8-tetrahydronaphthalen-1-yl)acetamide]
A2 value (human TRPV1): A (A less than 100 nmol/L)

O=C(/C=C1\CCOc2cc(C(F)(F)F)ccc21)Nc1cccc2c1C[C@H](O)CC2 [Type I crystal, (E)-2-(7-trifluoromethyl-chroman-4-ylidene)-N-((7R)-7-hydroxy-5,6,7,8-tetrahydronaphthalen-1-yl)acetamide]
Thermodynamic stability in suspension [1]: thermodynamically stable in suspension | Chemical purity (%) ([2]; 25° C./60% RH, 1 month, sealed): >99.9% | Crystal form ([2]; 25° C./60% RH, 1 month, sealed): Type I | Chemical purity (%) ([2]; 40° C./75% RH, 1 month, sealed): >99.9% | Crystal form ([2]; 40° C./75% RH, 1 month, sealed): Type I | Chemical purity (%) ([2]; 60° C., 1 month, sealed): >99.9% | Crystal form ([2]; 60° C., 1 month, sealed): Type I | Chemical purity (%) ([2]; Before test): >99.9% | Crystal form ([2]; Before test): Type I | Chemical purity (%) ([3]; 25° C./60% RH, 3 months, sealed): >99.9% | Chemical purity (%) [3, 5]: >99.9% | Crystal form [3, 5]: Type I | Chemical purity (%) [3, 6]: >99.9% | Crystal form [3, 6]: Type I | Chemical purity (%) [3, 7]: >99.9% | Crystal form [3, 7]: Type I | Chemical purity (%) [3, 8]: >99.9% | Crystal form [3, 8]: Type I | Chemical purity (%) [3, 9]: >99.9% | Crystal form [3, 9]: Type I | Chemical purity (%) ([3]; Before test): >99.9% | Crystal form ([3]; Before test): Type I | Moisture absorption ([3]; during the test periods of Experimental Examples 2 and 3): no moisture absorption | Chemical and physical stability ([3]; test periods of Experimental Examples 2 and 3): chemically and physically stable throughout the test period | Chemical purity (%) [4, 10]: >99.9% | Crystal form [4, 10]: Type I crystal | Chemical purity (%) ([4]; Before test): >99.9% | Crystal form ([4]; Before test): Type I crystal | Stability with respect to light [4]: extremely high chemical and physical stability

O=C(/C=C1\CCOc2cc(C(F)(F)F)ccc21)Nc1cccc2c1C[C@H](O)CC2 [Type II crystal, (E)-2-(7-trifluoromethyl-chroman-4-ylidene)-N-((7R)-7-hydroxy-5,6,7,8-tetrahydronaphthalen-1-yl)acetamide]
Chemical purity (%) ([2]; 25° C./60% RH, 1 month, sealed): >99.9% | Crystal form ([2]; 25° C./60% RH, 1 month, sealed): Type II | Chemical purity (%) ([2]; 40° C./75% RH, 1 month, sealed): >99.9% | Crystal form ([2]; 40° C./75% RH, 1 month, sealed): Type II | Chemical purity (%) ([2]; 60° C., 1 month, sealed): >99.9% | Crystal form ([2]; 60° C., 1 month, sealed): Type II | Chemical purity (%) ([2]; Before test): >99.9% | Crystal form ([2]; Before test): Type II | Chemical purity (%) [4, 10]: 98.2% | Crystal form [4, 10]: Type II crystal | Chemical purity (%) ([4]; Before test): >99.9% | Crystal form ([4]; Before test): Type II crystal | Stability with respect to light [4]: unstable with respect to light
